Experimental data taken from US20260125374A1, “PI3K-ALPHA INHIBITORS AND METHODS OF MAKING AND USING THE SAME” (Relay Therapeutics, Inc., priority 2021, published 2026).
Values after ≈ are worked out from the molar mass of the structure shown.

Experiment: Approximate solubility at 25° C. (visual observation)
Assay type: physicochemical
Method: Max. volume of each solvent added was 1 mL. Approximate solubility was determined by visual observation.

N#Cc1c(-c2cc(NC(=O)c3cc(F)cc(C(F)(F)F)c3)c3c(c2)C(=O)N[C@H]3c2cc(F)ccc2Cl)ccc2ncnn12 [Compound I-1, (R)-N-(3-(2-chloro-5-fluorophenyl)-6-(5-cyano-[1,2,4]triazolo[1,5-a]pyridin-6-yl)-1-oxoisoindolin-4-yl)-3-fluoro-5-(trifluoromethyl)benzamide]
Solubility (1,4-dioxane, organic solvent or mixture, thermodynamic from solid, 1,4-Dioxane, polymorph screening batch): 29 to 33 mg/mL (≈ 47.6 to 54.2 mM) | Solubility (2-MeTHF, organic solvent or mixture, thermodynamic from solid, polymorph screening batch): 5 to 6 mg/mL (≈ 8.21 to 9.85 mM) | Solubility (acetone, organic solvent or mixture, thermodynamic from solid, polymorph screening batch): 43 to 52 mg/mL (≈ 70.6 to 85.4 mM) | Solubility (acetone, organic solvent or mixture, thermodynamic from solid, starting material for salt screening): 12 to 17 mg/mL | Solubility (acetonitrile, organic solvent or mixture, thermodynamic from solid, polymorph screening batch): 10 to 11 mg/mL (≈ 16.4 to 18.1 mM) | Solubility (acetonitrile, organic solvent or mixture, thermodynamic from solid, starting material for salt screening): 10 to 17 mg/mL | Solubility (anisole, organic solvent or mixture, thermodynamic from solid, polymorph screening batch): < 5 mg/mL | Solubility (benzyl alcohol, organic solvent or mixture, thermodynamic from solid, polymorph screening batch): 16 to 18 mg/mL (≈ 26.3 to 29.6 mM) | Solubility (chloroform, organic solvent or mixture, thermodynamic from solid, polymorph screening batch): < 5 mg/mL | Solubility (dichloromethane, organic solvent or mixture, thermodynamic from solid, polymorph screening batch): < 5 mg/mL | Solubility (dichloromethane, organic solvent or mixture, thermodynamic from solid, starting material for salt screening): < 5 mg/mL | Solubility (ethanol, organic solvent or mixture, thermodynamic from solid, polymorph screening batch): 6 to 7 mg/mL (≈ 9.85 to 11.5 mM) | Solubility (ethanol, organic solvent or mixture, thermodynamic from solid, starting material for salt screening): < 5 mg/mL | Solubility (ethyl acetate, organic solvent or mixture, thermodynamic from solid, polymorph screening batch): 6 to 7 mg/mL (≈ 9.85 to 11.5 mM) | Solubility (heptane, organic solvent or mixture, thermodynamic from solid, polymorph screening batch): < 5 mg/mL | Solubility (isopropanol, organic solvent or mixture, thermodynamic from solid, polymorph screening batch): < 5 mg/mL | Solubility (isopropanol, organic solvent or mixture, thermodynamic from solid, starting material for salt screening): < 5 mg/mL | Solubility (isopropyl acetate, organic solvent or mixture, thermodynamic from solid, polymorph screening batch): < 5 mg/mL | Solubility (isopropyl acetate, organic solvent or mixture, thermodynamic from solid, starting material for salt screening): < 5 mg/mL | Solubility (methanol, organic solvent or mixture, thermodynamic from solid, polymorph screening batch): 15 to 17 mg/mL (≈ 24.6 to 27.9 mM) | Solubility (methanol, organic solvent or mixture, thermodynamic from solid, starting material for salt screening): 12 to 17 mg/mL | Solubility (methyl ethyl ketone, organic solvent or mixture, thermodynamic from solid, polymorph screening batch): 26 to 28 mg/mL (≈ 42.7 to 46 mM) | Solubility (methyl ethyl ketone, organic solvent or mixture, thermodynamic from solid, starting material for salt screening): 12 to 17 mg/mL | Solubility (nitromethane, organic solvent or mixture, thermodynamic from solid, Nitromethane (NM), polymorph screening batch): 7 to 8 mg/mL (≈ 11.5 to 13.1 mM) | Solubility (t-butyl methyl ether, organic solvent or mixture, thermodynamic from solid, polymorph screening batch): < 5 mg/mL | Solubility (tetrahydrofuran, organic solvent or mixture, thermodynamic from solid, polymorph screening batch): 52 to 65 mg/mL (≈ 85.4 to 107 mM) | Solubility (tetrahydrofuran, organic solvent or mixture, thermodynamic from solid, starting material for salt screening): 33 to 64 mg/mL | Solubility (toluene, organic solvent or mixture, thermodynamic from solid, polymorph screening batch): < 5 mg/mL | Solubility (trifluoroethanol, organic solvent or mixture, thermodynamic from solid, starting material for salt screening): 12 to 17 mg/mL | Solubility (water, thermodynamic from solid, polymorph screening batch): < 5 mg/mL | Solubility (water, thermodynamic from solid, starting material for salt screening): < 5 mg/mL
